Experimental data taken from ChEMBL document CHEMBL3774345, “Synthesis of new diarylamides with pyrimidinyl pyridine scaffold and evaluation of their anti-proliferative effect on cancer cell lines” (Bioorg Med Chem Lett, 2016).

Experiments:
Format in all cases: functional
[1] = Cytotoxicity against human OVCAR5 cells assessed as cell growth at 10^-8 M after 24 hrs by SRB assay; conditions: OVCAR-5, 24 h, read-out: Activity
ACHN [2] = assay: Cytotoxicity against human ACHN cells assessed as cell growth at 10^-8 M after 24 hrs by SRB assay; conditions: read-out: Activity
MDA-MB-231 = assay: Cytotoxicity against human MDA-MB-231 cells assessed as cell growth at 10^-8 M after 24 hrs by SRB assay; conditions: MDA-MB-231, 24 h, read-out: Activity
[3] = Cytotoxicity against human Hs 578T cells assessed as cell growth at 10^-8 M after 24 hrs by SRB assay; conditions: read-out: Activity
CCRF-CEM = assay: Cytotoxicity against human CCRF-CEM cells assessed as cell growth at 10^-7 M after 24 hrs by SRB assay; conditions: read-out: Activity
EKVX [4] = assay: Cytotoxicity against human EKVX cells assessed as cell growth at 10^-7 M after 24 hrs by SRB assay; conditions: read-out: Activity
[5] = Cytotoxicity against human COLO205 cells assessed as cell growth at 10^-7 M after 24 hrs by SRB assay; conditions: COLO 205, 24 h, read-out: Activity
[6] = Cytotoxicity against human SF295 cells assessed as cell growth at 10^-7 M after 24 hrs by SRB assay; conditions: SF-295, 24 h, read-out: Activity
U-251 [7] = assay: Cytotoxicity against human U251 cells assessed as cell growth at 10^-7 M after 24 hrs by SRB assay; conditions: U-251, 24 h, read-out: Activity
SK-MEL-5 [8] = assay: Cytotoxicity against human SK-MEL-5 cells assessed as cell growth at 10^-7 M after 24 hrs by SRB assay; conditions: SK-MEL-5, 24 h, read-out: Activity
[9] = Cytotoxicity against human RXF393 cells assessed as cell growth at 10^-7 M after 24 hrs by SRB assay; conditions: RXF 393, 24 h, read-out: Activity
NCI-H23 = assay: Cytotoxicity against human NCI-H23 cells after 24 hrs by SRB assay; conditions: NCI-H23, 24 h
NCI-H226 = assay: Cytotoxicity against human NCI-H226 cells assessed as cell growth at 10^-4 M after 24 hrs by SRB assay; conditions: NCI-H226, 24 h, read-out: Activity
T47D = assay: Cytotoxicity against human T47D cells assessed as cell growth at 10^-7 M after 24 hrs by SRB assay; conditions: read-out: Activity
[10] = Cytotoxicity against human MOLT4 cells assessed as cell growth at 10^-6 M after 24 hrs by SRB assay; conditions: MOLT-4, 24 h, read-out: Activity
EKVX [11] = assay: Cytotoxicity against human EKVX cells assessed as cell growth at 10^-6 M after 24 hrs by SRB assay; conditions: read-out: Activity
SK-MEL-5 [12] = assay: Cytotoxicity against human SK-MEL-5 cells assessed as cell growth at 10^-4 M after 24 hrs by SRB assay; conditions: SK-MEL-5, 24 h, read-out: Activity
786-0 = assay: Cytotoxicity against human 786-0 cells assessed as cell growth at 10^-4 M after 24 hrs by SRB assay; conditions: 786-0, 24 h, read-out: Activity
KM12 = assay: Cytotoxicity against human KM12 cells assessed as cell growth at 10^-6 M after 24 hrs by SRB assay; conditions: KM12, 24 h, read-out: Activity
[13] = Cytotoxicity against human SF539 cells assessed as cell growth at 10^-6 M after 24 hrs by SRB assay; conditions: SF-539, 24 h, read-out: Activity
Malme-3M = assay: Cytotoxicity against human MALME-3M cells assessed as cell growth at 10^-6 M after 24 hrs by SRB assay; conditions: read-out: Activity
[14] = Cytotoxicity against human BT549 cells assessed as cell growth at 10^-6 M after 24 hrs by SRB assay; conditions: BT-549, 24 h, read-out: Activity
A549 [15] = assay: Cytotoxicity against human A549 cells after 24 hrs by SRB assay; conditions: A549, 24 h
[16] = Cytotoxicity against human RPMI8226 cells after 24 hrs by SRB assay; conditions: RPMI-8226, 24 h
K562 [17] = assay: Cytotoxicity against human K562 cells after 24 hrs by SRB assay; conditions: K562, 24 h
K562 [18] = assay: Cytotoxicity against human K562 cells assessed as cell growth at 10^-8 M after 24 hrs by SRB assay; conditions: K562, 24 h, read-out: Activity
A549 [19] = assay: Cytotoxicity against human A549 cells assessed as cell growth at 10^-8 M after 24 hrs by SRB assay; conditions: A549, 24 h, read-out: Activity
[20] = Cytotoxicity against human HOP62 cells assessed as cell growth at 10^-8 M after 24 hrs by SRB assay; conditions: HOP-62, 24 h, read-out: Activity
NCI-H522 = assay: Cytotoxicity against human NCI-H522 cells assessed as cell growth at 10^-8 M after 24 hrs by SRB assay; conditions: NCI-H522, 24 h, read-out: Activity
[21] = Cytotoxicity against human SF539 cells assessed as cell growth at 10^-8 M after 24 hrs by SRB assay; conditions: SF-539, 24 h, read-out: Activity
U-251 [22] = assay: Cytotoxicity against human U251 cells assessed as cell growth at 10^-8 M after 24 hrs by SRB assay; conditions: U-251, 24 h, read-out: Activity
SK-MEL-5 [23] = assay: Cytotoxicity against human SK-MEL-5 cells assessed as cell growth at 10^-8 M after 24 hrs by SRB assay; conditions: SK-MEL-5, 24 h, read-out: Activity
[24] = Cytotoxicity against human UACC62 cells assessed as cell growth at 10^-8 M after 24 hrs by SRB assay; conditions: UACC-62, 24 h, read-out: Activity
[25] = Cytotoxicity against human OVCAR3 cells assessed as cell growth at 10^-8 M after 24 hrs by SRB assay; conditions: OVCAR-3, 24 h, read-out: Activity
NCI-H460 = assay: Cytotoxicity against human NCI-H460 cells assessed as cell growth at 10^-5 M after 24 hrs by SRB assay; conditions: NCI-H460, 24 h, read-out: Activity
ACHN [26] = assay: Cytotoxicity against human ACHN cells assessed as cell growth at 10^-5 M after 24 hrs by SRB assay; conditions: read-out: Activity
SR = assay: Cytotoxicity against human SR cells assessed as growth inhibition at 10 uM after 24 hrs by SRB assay; conditions: read-out: GI
[27] = read-out: LC50 (the source's name)
[28] = read-out: pLC50 (the source's name) (converted)

O=C(Nc1cc(-c2cccnc2)nc(NCCCN2CCOCC2)n1)c1cc(Br)cc(C(F)(F)F)c1
growth at 0.01 µM [1]: 92% | growth at 0.01 µM (ACHN [2]): 95% | growth at 0.01 µM (MDA-MB-231): 90% | growth at 0.01 µM [3]: 93% | growth at 0.1 µM (CCRF-CEM): 105% | growth at 0.1 µM (EKVX [4]): 80% | growth at 0.1 µM [5]: 93% | growth at 0.1 µM [6]: 91% | growth at 0.1 µM (U-251 [7]): 97% | growth at 0.1 µM (SK-MEL-5 [8]): 95% | growth at 0.1 µM [9]: 97% | GI50 (NCI-H23; read-out: GI50): 3.55 µM | CC50 (NCI-H23; [27]): 46.1 µM | TGI (NCI-H23; read-out: TGI): 15 µM | GI50 (NCI-H23; read-out: pGI50 (converted)): 3.55 µM | CC50 (NCI-H23; [28]): 45.7 µM | TGI (NCI-H23; read-out: pTGI (converted)): 15.1 µM | growth at 100 µM (NCI-H226): -89% | growth at 0.1 µM (T47D): 91% | growth at 1 µM [10]: 102% | growth at 1 µM (EKVX [11]): 76% | growth at 100 µM (SK-MEL-5 [12]): -100% | growth at 100 µM (786-0): -87% | growth at 1 µM (KM12): 96% | growth at 1 µM [13]: 85% | growth at 1 µM (Malme-3M): 90% | growth at 1 µM [14]: 83% | GI50 (A549 [15]; read-out: GI50): 10.1 µM | CC50 (A549 [15]; [27]): 48.8 µM | TGI (A549 [15]; read-out: TGI): 22.2 µM | GI50 (A549 [15]; read-out: pGI50 (converted)): 10 µM | CC50 (A549 [15]; [28]): 49 µM | TGI (A549 [15]; read-out: pTGI (converted)): 22.4 µM | GI50 ([16]; read-out: GI50): 3.15 µM | CC50 [16, 27]: > 100 µM | TGI ([16]; read-out: TGI): 9.69 µM | GI50 ([16]; read-out: pGI50 (converted)): 3.16 µM | CC50 [16, 28]: > 100 µM | TGI ([16]; read-out: pTGI (converted)): 9.77 µM | GI50 (K562 [17]; read-out: GI50): 2.81 µM | CC50 (K562 [17]; [27]): > 100 µM | TGI (K562 [17]; read-out: TGI): 21.7 µM | GI50 (K562 [17]; read-out: pGI50 (converted)): 2.82 µM | CC50 (K562 [17]; [28]): > 100 µM | TGI (K562 [17]; read-out: pTGI (converted)): 21.9 µM | growth at 0.01 µM (K562 [18]): 107% | growth at 0.01 µM (A549 [19]): 110% | growth at 0.01 µM [20]: 94% | growth at 0.01 µM (NCI-H522): 86% | growth at 0.01 µM [21]: 95% | growth at 0.01 µM (U-251 [22]): 97% | growth at 0.01 µM (SK-MEL-5 [23]): 95% | growth at 0.01 µM [24]: 89% | growth at 0.01 µM [25]: 105% | growth at 10 µM (NCI-H460): -5% | growth at 10 µM (ACHN [26]): 5%

COc1cc(OC)cc(C(=O)Nc2cc(-c3cccnc3)nc(NCCCN3CCOCC3)n2)c1
inhibition of growth at 10 µM (SR): 42.1%
